Experimental data as given in patent US6737383B1, “Herbicidal oxadiazolidines” (priority 1999, dated 2004).

Columns and labels:
bedstraw = assay: Test B pre/postemergence bedstraw; assay type: in vivo, Galium aparine; conditions: Preemergence
How it was run: (§1)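 Test chemicals in a non-phytotoxic solvent mixture with surfactant were sprayed preemergence onto planted seeds and postemergence onto plants 2 to 18 cm tall (1- to 4-leaf stage). After twelve to sixteen days in a greenhouse, injury was visually rated against untreated controls from 0 (no effect) to 10 (complete control).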

blackgrass = assay: Test B pre/postemergence blackgrass; assay type: in vivo, Alopecurus myosuroides
How it was run: as §1

surinam grass = assay: Test B pre/postemergence surinam grass; assay type: in vivo, Brachiaria decumbens
How it was run: as §1

cocklebur = assay: Test B pre/postemergence cocklebur; assay type: in vivo, Xanthium strumarium
How it was run: as §1

corn = assay: Test B pre/postemergence corn; assay type: in vivo, Zea mays
How it was run: as §1

giant foxtail = assay: Test B pre/postemergence giant foxtail; assay type: in vivo, Setaria faberii
How it was run: as §1

morningglory = assay: Test B pre/postemergence morningglory; assay type: in vivo, Ipomoea hederacea
How it was run: as §1

pigweed = assay: Test B pre/postemergence pigweed; assay type: in vivo, Amaranthus retroflexus
How it was run: as §1

rape = assay: Test B pre/postemergence rape; assay type: in vivo, Brassica napus
How it was run: as §1

sugar beet = assay: Test B pre/postemergence sugar beet; assay type: in vivo, Beta vulgaris
How it was run: as §1

velvetleaf = assay: Test B pre/postemergence velvetleaf; assay type: in vivo, Abutilon theophrasti
How it was run: as §1

purple nutsedge = assay: Test B pre/postemergence purple nutsedge; assay type: in vivo, Cyperus rotundus
How it was run: as §1

rice = assay: Test B flood test rice; assay type: in vivo, Oryza sativa
How it was run: (§2)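 Plants were grown to the 2-leaf stage before treatment with test chemical, then held in a greenhouse for twelve to sixteen days. Injury was visually rated against untreated controls on a 0–10 scale, where 0 is no effect and 10 is complete control.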

duck salad = assay: Test B flood test duck salad; assay type: in vivo, Heteranthera limosa
How it was run: as §2

bamyardgrass = assay: Test B flood test barnyardgrass; assay type: in vivo, Echinochloa crus-galli
How it was run: as §2

[1] = Postemergence, Rate 62 g/ha, scale 0 to 10, 0 is no effect, 10 is complete control
[2] = Postemergence, Rate 125 g/ha, scale of 0 to 10 where 0 is no effect and 10 is complete control
[3] = Postemergence, Rate 250 g/ha, scale of 0 to 10, 0 is no effect, 10 is complete control
[4] = Postemergence, Rate 500 g/ha, scale of 0 to 10 where 0 is no effect and 10 is complete control
[5] = Preemergence, Rate 62 g/ha, scale 0 to 10 (0 no effect, 10 complete control)
[6] = Preemergence, Rate 125 g/ha, scale of 0 to 10 where 0 is no effect and 10 is complete control
[7] = Preemergence, Rate 250 g/ha, scale 0 to 10 (0 no effect, 10 complete control)
[8] = Preemergence, Rate 500 g/ha, scale of 0 to 10 where 0 is no effect and 10 is complete control
[9] = Rate 62 g/ha, flood test species, Pre-emergence, visual evaluation after twelve to sixteen days
[10] = Rate 125 g/ha, under heading Pre-emergence, flood test species, visual evaluation after twelve to sixteen days
[11] = Rate 250 g/ha, Pre-emergence (flood test species), scale 0 to 10, 0 is no effect, 10 is complete control
[12] = Rate 500 g/ha, Pre-emergence section of Table B, 0 to 10 scale (0 no effect, 10 complete control)

Compound: COCCn1c(=O)on(C(=O)N(c2ccc(F)cc2)C(C)C)c1=O [Compound 627]
- Bedstraw plant response rating (bedstraw; Rate 62 g/ha, scale 0 to 10 (0 no effect, 10 complete control)): 2
- Bedstraw plant response rating (bedstraw; Rate 125 g/ha, scale of 0 to 10 where 0 is no effect and 10 is complete control): 2
- Plant response rating, Bedstraw (bedstraw; Rate 250 g/ha, scale 0 to 10 (0 no effect, 10 complete control)): 8
- Plant response rating, Bedstraw (bedstraw; Rate 500 g/ha, scale of 0 to 10 where 0 is no effect and 10 is complete control): 8
- Plant response rating, Blackgrass (blackgrass; [1]): 8
- Plant response rating, Blackgrass (blackgrass; [2]): 8
- Blackgrass plant response rating (blackgrass; [3]): 9
- Plant response rating, Blackgrass (blackgrass; [4]): 9
- Blackgrass plant response rating (blackgrass; [5]): 8
- Blackgrass plant response rating (blackgrass; [6]): 8
- Plant response rating, Blackgrass (blackgrass; [7]): 9
- Plant response rating, Blackgrass (blackgrass; [8]): 10
- Plant response rating, B. signalgrass (surinam grass; [1]): 3
- Plant response rating, B. signalgrass (surinam grass; [2]): 7
- B. signalgrass plant response rating (surinam grass; [3]): 7
- Plant response rating, B. signalgrass (surinam grass; [4]): 8
- B. signalgrass plant response rating (surinam grass; [5]): 5
- B. signalgrass plant response rating (surinam grass; [6]): 5
- Plant response rating, B. signalgrass (surinam grass; [7]): 8
- Plant response rating, B. signalgrass (surinam grass; [8]): 9
- Plant response rating, Cocklebur (cocklebur; [1]): 0
- Plant response rating, Cocklebur (cocklebur; [2]): 0
- Cocklebur plant response rating (cocklebur; [3]): 0
- Plant response rating, Cocklebur (cocklebur; [4]): 3
- Cocklebur plant response rating (cocklebur; [5]): 6
- Cocklebur plant response rating (cocklebur; [6]): 6
- Plant response rating, Cocklebur (cocklebur; [7]): 6
- Plant response rating, Cocklebur (cocklebur; [8]): 7
- Plant response rating, Corn (corn; [1]): 0
- Plant response rating, Corn (corn; [2]): 3
- Corn plant response rating (corn; [3]): 7
- Plant response rating, Corn (corn; [4]): 8
- Corn plant response rating (corn; [5]): 3
- Corn plant response rating (corn; [6]): 4
- Plant response rating, Corn (corn; [7]): 6
- Plant response rating, Corn (corn; [8]): 9
- Plant response rating, Giant foxtail (giant foxtail; [1]): 9
- Giant foxtail plant response rating (giant foxtail; [3]): 9
- Plant response rating, Giant foxtail (giant foxtail; [4]): 9
- Giant foxtail plant response rating (giant foxtail; [5]): 9
- Giant foxtail plant response rating (giant foxtail; [6]): 10
- Plant response rating, Giant foxtail (giant foxtail; [7]): 10
- Plant response rating, Giant foxtail (giant foxtail; [8]): 10
- Plant response rating, Morningglory (morningglory; [1]): 3
- Plant response rating, Morningglory (morningglory; [2]): 6
- Morningglory plant response rating (morningglory; [3]): 6
- Plant response rating, Morningglory (morningglory; [4]): 6
- Morningglory plant response rating (morningglory; [5]): 6
- Morningglory plant response rating (morningglory; [6]): 6
- Plant response rating, Morningglory (morningglory; [7]): 6
- Plant response rating, Morningglory (morningglory; [8]): 8
- Plant response rating, Redroot pigweed (pigweed; [1]): 2
- Plant response rating, Redroot pigweed (pigweed; [2]): 3
- Redroot pigweed plant response rating (pigweed; [3]): 6
- Redroot pigweed plant response rating (pigweed; [5]): 9
- Redroot pigweed plant response rating (pigweed; [6]): 9
- Plant response rating, Redroot pigweed (pigweed; [7]): 10
- Plant response rating, Redroot pigweed (pigweed; [8]): 10
- Plant response rating, Rape (rape; [1]): 0
- Plant response rating, Rape (rape; [2]): 0
- Rape plant response rating (rape; [3]): 0
- Plant response rating, Rape (rape; [4]): 5
- Rape plant response rating (rape; [5]): 1
- Rape plant response rating (rape; [6]): 3
- Plant response rating, Rape (rape; [7]): 9
- Plant response rating, Rape (rape; [8]): 10
- Plant response rating, Sugarbeets (sugar beet; [1]): 0
- Plant response rating, Sugarbeets (sugar beet; [2]): 0
- Sugarbeets plant response rating (sugar beet; [3]): 0
- Sugarbeets plant response rating (sugar beet; [5]): 5
- Sugarbeets plant response rating (sugar beet; [6]): 4
- Plant response rating, Sugarbeets (sugar beet; [7]): 8
- Plant response rating, Sugarbeets (sugar beet; [8]): 9
- Plant response rating, Velvetleaf (velvetleaf; [1]): 3
- Plant response rating, Velvetleaf (velvetleaf; [2]): 4
- Velvetleaf plant response rating (velvetleaf; [3]): 8
- Velvetleaf plant response rating (velvetleaf; [5]): 7
- Velvetleaf plant response rating (velvetleaf; [6]): 8
- Plant response rating, Velvetleaf (velvetleaf; [7]): 10
- Plant response rating, Velvetleaf (velvetleaf; [8]): 10
- Plant response rating, Nutsedge (purple nutsedge; [1]): 3
- Nutsedge plant response rating (purple nutsedge; [3]): 6
- Nutsedge plant response rating (purple nutsedge; [5]): 7
- Nutsedge plant response rating (purple nutsedge; [6]): 7
- Plant response rating, Nutsedge (purple nutsedge; [7]): 7
- Plant response rating, Nutsedge (purple nutsedge; [8]): 10
- Plant response rating, Rice (0 to 10 scale, 0 is no effect, 10 is complete control) (rice; [9]): 0
- Rice plant response rating (0 to 10 scale, 0 is no effect, 10 is complete control) (rice; [10]): 0
- Rice plant response rating (rice; [11]): 0
- Rice plant response rating (rice; [12]): 0
- Plant response rating, Ducksalad (0 to 10 scale, 0 is no effect, 10 is complete control) (duck salad; [9]): 0
- Ducksalad plant response rating (0 to 10 scale, 0 is no effect, 10 is complete control) (duck salad; [10]): 0
- Ducksalad plant response rating (duck salad; [11]): 0
- Ducksalad plant response rating (duck salad; [12]): 1
- Plant response rating, Barnyardgrass (0 to 10 scale, 0 is no effect, 10 is complete control) (bamyardgrass; [9]): 0
- Barnyardgrass plant response rating (0 to 10 scale, 0 is no effect, 10 is complete control) (bamyardgrass; [10]): 0
- Barnyardgrass plant response rating (bamyardgrass; [11]): 0
- Barnyardgrass plant response rating (bamyardgrass; [12]): 8
